What was measured:
HsHaspin = biological target: T1, HsHaspin (Homo sapiens, UniProt Q8TF76); assay: Recombinant Haspin kinase assay ([γ-33P]ATP, 15 µM ATP; some values ADP-Glo); type: biochemical; conditions: recombinant HsHaspin, in vitro
T1 construct: aa470-798; made in house; host or cells: E. coli
T1 sequence (Q8TF76 470-798): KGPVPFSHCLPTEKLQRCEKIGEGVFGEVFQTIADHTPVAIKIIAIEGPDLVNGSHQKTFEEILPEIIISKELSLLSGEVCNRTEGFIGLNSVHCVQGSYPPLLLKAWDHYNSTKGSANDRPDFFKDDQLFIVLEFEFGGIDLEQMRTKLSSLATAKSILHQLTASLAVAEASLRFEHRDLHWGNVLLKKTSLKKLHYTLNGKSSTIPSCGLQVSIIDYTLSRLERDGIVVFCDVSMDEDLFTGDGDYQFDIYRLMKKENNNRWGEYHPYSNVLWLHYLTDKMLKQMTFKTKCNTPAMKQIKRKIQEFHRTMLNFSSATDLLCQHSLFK
Method: (§1) Values are IC50 expressed in µM and calculated from dose–response curves (each point on the curves was performed in triplicate). Selectivity indexes (SI; in brackets) are calculated as follows: SI = IC50 kinase X/IC50 Haspin. ND: not determined. *IC50 values obtained using the ADP-Glo methodology (see Experimental section, Supplementary Material). […]
A, HsCdk9/Cyclin T). Native SscCK1δ /ε and SscGSK3α/β were purified from pig brain whereas HsPlk1, HsCdk1 and HsAurora B were purchased from ProQinase and SignalChem respectively. Kinase assays were performed in […]
mCi/ml; PerkinElmer) in a final volume of 30 µl as previously reported 51. After 30 min incubation at 30°C, the reaction mix was spotted onto GE healthcare P81 phosphocellulose paper using a FilterMate Harvester (PerkinElmer), and the filter was extensively washed with a 1% phosphoric acid solution. The wet filter-bound radioactivity was determined in the presence of 20 µl scintillation fluid (GE healthcare) with a TopCount® Scintillation and Luminescence Counter (PerkinElmer). IC50 values were calculated from dose-response curves […]
Kinase activities using the ADP-Glo methodology (ADP-Glo Kinase Assay; Promega) were assayed according to the assay described in Nguyen et al. 52 and Ibrahim et al. 53. […]

HsCdk9/Cyclin T = assay: CDK9 kinase assay; type: biochemical, human; conditions: SI = IC50 kinase X/IC50 Haspin
Method: as §1
The reaction was carried out as described in general procedure A using 4 (0.150 g, 0.58 mmol, 1 equiv.), 2-aminopyrimidine-5-boronic acid (0.122 g, 0.88 mmol, 1.5 equiv.) and Cs2CO3 (0.575 g, 1.75 mmol, 3 equiv.). The crude mixture was purified by flash chromatography on silica gel (EtOAc) to afford 28 (0.115 g, 73 %) as a yellow […]
The reaction was carried out as described in general procedure A using 4 (0.100 g, 0.39 mmol, 1 equiv.), 1-naphthaleneboronic acid (0.083g, 0.47 mmol, 1.2 equiv.) and Cs2CO3 (0.381 g, 1.17 mmol, 3 equiv.). […]
Recombinant protein kinases were expressed and purified from E. coli (HsHaspin kinase domain aa470-798, HsCdk5/p25, RnDYRK1A kinase domain aa1-499, HsPIM1, MmCLK1) or baculovirus/Sf9 cells (HsCdk2/Cyclin A, HsCdk9/Cyclin T). […] The wet filter-bound radioactivity was determined in the presence of 20 µl scintillation fluid (GE healthcare) with a TopCount® Scintillation and Luminescence Counter (PerkinElmer). IC50 values were calculated from dose-response curves […]

HBL100 = assay: Cell viability, monolayer (2D), MTS assay; type: cell-based; conditions: Homo sapiens, HBL-100, 48 h
U-2 OS cells = assay: Cell cycle analysis by flow cytometry (propidium iodide); conditions: 2.5 µM, 24 h, U-2 OS
Method: Figure 6. […] DNA content was measured by flow cytometry and representative profiles are shown. (B) quantification of the proportion of cells in each phase of the cell cycle from the experiment described in (A). Results are mean percentage (n = 3 independent experiments).
Cellular evaluation methods
All media were supplemented with 10% fetal calf serum (unless overwise specified) and 2 mM L-glutamine and cells were cultured
F68-pluronic acid. Cells were fixed for 2h in ice-cold ethanol, then washed twice in PBS containing 0.1% F68-pluronic acid, centrifuged at 200 g and resuspended in a PBS buffer containing 1% Triton, 100 µg/ml RNase A (Thermo Scientific) and 40 µg/ml propidium iodide (Life Technologies). DNA content was determined using a FACS Canto II (BD) and the data were analyzed using FCS Express Cytometry software (De Novo Software).
Twenty thousand events were collected in each run.

How did the IC50 (HsHaspin) turn out when `c1cc2[nH]ncc2cc1-c1cnc2ccc(OC[C@@H]3CNCCO3)nn12` [Compound 21] was run?
Its IC50 is 6 nM.

What about the “selectivity for CDK9 vs Haspin” value (HsCdk9/Cyclin T) of the same compound?
The value was 28 fold.

What about the EC50 (HBL100) of the same compound?
The EC50 was over 10000 nM.

And the “cells in G2/M phase (% of cell total population)” value (U-2 OS cells; DMSO control 12.8%)?
The value was 21.4%.

And the “cells in S phase (% of cell total population)” value (U-2 OS cells; DMSO control 51.9%)?
Its value is 32%.

— PMC7580722, “Design of new disubstituted imidazo[1,2-b]pyridazine derivatives as selective Haspin inhibitors. Synthesis, binding mode and anticancer biological evaluation” (Journal of Enzyme Inhibition and Medicinal Chemistry, 2020)
